Structures are written as SMILES.

The target in the first experiment is T1, Decaprenyl diphosphate synthase (Mycobacterium tuberculosis (strain CDC 1551 / Oshkosh), UniProt P9WFF6).
T1 sequence (P9WFF6 whole entry): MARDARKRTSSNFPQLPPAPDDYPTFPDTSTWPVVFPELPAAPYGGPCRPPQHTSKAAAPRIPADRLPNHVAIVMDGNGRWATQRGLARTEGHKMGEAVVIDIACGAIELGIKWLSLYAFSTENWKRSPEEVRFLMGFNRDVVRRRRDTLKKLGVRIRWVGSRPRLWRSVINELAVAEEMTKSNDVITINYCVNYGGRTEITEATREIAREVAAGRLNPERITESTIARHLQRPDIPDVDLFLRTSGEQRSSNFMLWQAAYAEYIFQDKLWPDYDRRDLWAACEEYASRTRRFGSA
Kind of experiment: DPPS Inhibition (GPP based) Assay. The note with it: pH 7.5. An excerpt:
We screened an in-house library of 43 compounds using GPP as substrate.
`CCCCCCC1=C(C[N+](C)(C)C)C(=O)c2ccccc2C1=O` [BPH-1474]: the IC50 came out at 7 µM.

As for `CCCCCCCCOc1cccc(C(=O)Nc2cccc(P(=O)(O)O)c2)c1` [BPH-1432], the IC50 is 0.21 µM.

`NCCc1cc(Br)cc(C#Cc2ccc(C#Cc3cc(Br)cc(CCN)c3)cc2)c1` [BPH-1419]: the IC50 amounted to 0.57 µM.

On to `CCCCCCCCCCCCCCOc1cc([N+](=O)[O-])ccc1C(=O)O` [BPH-965], for which the IC50 amounted to 1 µM.

`CCn1c2ccccc2c2cc(NC(=O)/C=C(\O)C(=O)O)ccc21` [BPH-1149] yielded an IC50 of 2 µM.

Regarding `NCCc1cccc(C#Cc2ccc(C#Cc3cccc(CCN)c3)cc2)c1` [BPH-1427], half-maximal inhibition (IC50) required 3.2 µM.

`CCCCCCCCCCCCOc1cccc(O)c1C(=O)O` [BPH-1065] came in with an IC50 of 4.5 µM.

Consider `CCCCCCCCOc1cccc(C(=O)Nc2cc(S(C)(=O)=O)ccc2C(=O)O)c1` [BPH-1467], for which the IC50 was 0.138 µM.

Turning to `O=C(/C=C/c1ccc(O)c(O)c1)OC1CC(O)(C(=O)O)CC(O)C1O` (stereo unspecified) [BPH-1068], the IC50 was determined as 2.3 µM.

The molecule `CCCCCCCOc1cccc(C(=O)Nc2ccccc2C(=O)O)c1` [BPH-1167] displayed an IC50 of 0.133 µM.

`CCCCCCCCOc1cccc(C(=O)Nc2ccc(Cl)cc2C(=O)O)c1` [BPH-1466] came in with an IC50 of 0.156 µM.

The molecule `CCCCCCCCCCOc1cccc(C(=O)Nc2ccc(S(N)(=O)=O)cc2C(=O)O)c1` [BPH-1256] showed an IC50 of 0.041 µM.

Molecule `CCCCCCCCOc1cccc(CNC(=O)/C=C(\O)C(=O)O)c1` [BPH-1305] gave an IC50 of 6.3 µM.

Take `CC(C)=CCC/C(C)=C/COc1ccc(C(=O)/C=C(\O)C(=O)O)cc1` [BPH-1379]: the IC50 worked out at 4.1 µM.

`CCCCCCCCOc1cccc(C(=O)Nc2cc(F)c(F)cc2C(=O)O)c1` [BPH-1455] came in with an IC50 of 0.279 µM.

In turn, `CCCCCCCCCCOc1cccc(COc2ccccc2C(=O)O)c1` [BPH-1150] showed an IC50 of 0.7 µM.

As for `CCCCCCCCOc1cccc(C(=O)N(C)c2cccc(P(=O)(O)O)c2)c1` [BPH-1433], the IC50 is 0.49 µM.

On to `C/C=C\C(=C/CC(=O)Nc1ccc(OC(F)(F)F)cc1C(=O)O)OCCCCCCCC` [BPH-1477], for which the IC50 stood at 0.043 µM.

In turn, `NC(=O)c1cc(NC(=O)c2ccc(C(=O)Nc3cc(C(N)=O)cc(C4=NCCN4)c3)cc2)cc(C2=NCCN2)c1` [100873, 18] registered an IC50 of 8.4 µM.

`CCCCCCCCOc1cccc(P(=O)(CC(=O)C(=O)O)OCC)c1` (stereo unspecified) [BPH-1389] came in with an IC50 of 2.6 µM.

Take `CCCCCCCCOc1ccc(C(=O)/C=C(\O)C(=O)O)cc1` [BPH-1330]: it took 20 µM to reach half-maximal inhibition (IC50).

Molecule `CCCCCCCCCCOc1cccc(COc2ccc(S(=O)(=O)N3CCN(C(C)=O)CC3)cc2C(=O)O)c1` [BPH-1165] returned an IC50 of 3 µM.

Regarding `CCCCCCOc1ccc(C(=O)/C=C(\O)C(=O)O)cc1` [BPH-1378], the IC50 was 10 µM.

With `CCCCCCCCCCCCCCSc1ccccc1C(=O)O` [BPH-948], the IC50 amounted to 0.036 µM.

For `O=C(Nc1ccc(CCC2=NCCN2)cc1)c1ccc(C(=O)Nc2ccc(CCC3=NCCN3)cc2)cc1` [BPH-1413], the IC50 turned out to be 5.8 µM.

In turn, `CCCCCCCCCCOc1cc(C(=O)Nc2ccc(S(N)(=O)=O)cc2C(=O)O)cc(C(=O)OC)c1` [BPH-1257] gave an IC50 of 1.1 µM.

On to `CCCCCCCCOc1cccc(C(=O)Nc2ccccc2P(=O)(O)O)c1` [BPH-1440], for which half-maximal inhibition (IC50) was put at 0.76 µM.

The next experiment addresses T1, Decaprenyl diphosphate synthase. Put plainly: DPPS Inhibition (trans FPP based) Assay. As to conditions: pH 7.5. An excerpt: We screened an in-house library of 53 compounds using trans-FPP as substrate.
For `O=P(O)(O)C(Nc1cccc(-c2ccccc2)c1)P(=O)(O)O` [[(Biphenyl-3-ylamino)-phosphono-methyl]-phosphonic acid], the midpoint of inhibition, the IC50, lay at 6.3 µM.

Regarding `O=P(O)(O)C(O)(Cc1ccc(-c2ccc(Cl)cc2)cc1)P(=O)(O)O` [[2-(4'-Chloro-biphenyl-4-yl)-1-hydroxy-1-phosphono-ethyl]-phosphonic acid], half-maximal inhibition (IC50) required 1.5 µM.

On to `O=P(O)(O)C(O)(Cc1ccc(-c2cccc(-c3ccccc3)c2)cc1)P(=O)(O)O` [BPH-625], for which half-maximal inhibition (IC50) was put at 291 µM.

On to `O=P(O)(O)C(O)(Cc1ccc(-c2cccc(NS(=O)(=O)c3ccc4ccccc4c3)c2)cc1)P(=O)(O)O` [BPH-780], for which the IC50 stood at 3.8 µM.

`O=P(O)(O)C(O)(Cc1ccc(-c2ccccc2-c2ccccc2)cc1)P(=O)(O)O` [BPH-624] came in with an IC50 of 5.4 µM.

`C=CC/C=C\C/C=C\CCCCCCCc1cccc(O)c1C(=O)O` [6-[8(Z),11(Z),14-pentadecatrienyl]salicylic acid]: it took 280 µM to reach half-maximal inhibition (IC50).

Consider `C=CCN(C)CCCCCCCCCCCCCCCC(=O)OC` [BPH-922], for which half-maximal inhibition (IC50) required 620 µM.

With `O=P(O)(O)C(O)(Cc1ccc(-c2ccc(-c3ccccc3)cc2)cc1)P(=O)(O)O` [BPH-626], inhibition was half-maximal at 51 µM (IC50).

`CCCCCCCCCCCCSc1ccccc1C(=O)O` [BPH-940] gave an IC50 of 127 µM.

As to `O=P(O)(O)C(O)(Cc1cccc(-c2cccc(NS(=O)(=O)c3ccc4ccccc4c3)c2)c1)P(=O)(O)O` [(1-hydroxy-2-{3-[3-(naphthalene-2-sulfonamido)phenyl]phenyl}-1-phosphonoethyl)phosphonic acid], it took 8.2 µM to reach half-maximal inhibition (IC50).

In turn, `O=P(O)(O)C(O)(Cc1cccc(-c2cccc(-c3ccccc3)c2)c1)P(=O)(O)O` [{1-hydroxy-2-[3-(3-phenylphenyl)phenyl]-1-phosphonoethyl}phosphonic acid] registered an IC50 of 18 µM.

On to `O=P(O)(O)C(O)(Cc1cccc(-c2cc(F)cc(F)c2)c1)P(=O)(O)O` [BPH-309], for which half-maximal inhibition (IC50) required 1.7 µM.

The molecule `O=P(O)(O)C(O)(Cc1cccc(-c2ccc(-c3ccccc3)cc2)c1)P(=O)(O)O` [{1-hydroxy-2-[3-(4-phenylphenyl)phenyl]-1-phosphonoethyl}phosphonic acid] yielded an IC50 of 31 µM.

`O=P(O)(O)C(C[n+]1ccc(-c2cccc3c2oc2ccccc23)cc1)P(=O)(O)O` [BPH-642] came in with an IC50 of 114 µM.

On to `O=P(O)(O)C(O)(Cc1ccc(-c2cccc(NS(=O)(=O)c3ccc(-c4ccccc4)cc3)c2)cc1)P(=O)(O)O` [BPH-781], for which the IC50 was 66 µM.

Regarding `O=P(O)(O)[C@@H](CCCc1cccc(Oc2ccccc2)c1)S(=O)(=O)O` [BPH-652], half-maximal inhibition (IC50) required 113 µM.

Turning to `CCCCCCCCCCCCOc1ccc[n+](CC(P(=O)(O)O)P(=O)(O)O)c1` [BPH-716], the IC50 is 77 µM.

In turn, `O=P(O)(O)C(CCCc1ccc(-c2ccccc2)cc1)P(=O)(O)O` [(4-Biphenyl-4-yl-1-phosphono-butyl)-phosphonic acid] gave an IC50 of 1.6 µM.

`O=P(O)(O)C(C[n+]1ccc(-c2ccc(-c3ccccc3)cc2)cc1)P(=O)(O)O` [BPH-632] showed an IC50 of 498 µM.

As to `O=P(O)(O)C(CNc1cccc(-c2ccccc2)c1)P(=O)(O)O` [2-(biphenyl-3-ylamino)ethane-1,1-diyldiphosphonic acid], the midpoint of inhibition, the IC50, lay at 17 µM.

Molecule `O=P(O)(O)C(O)(CCc1ccc(-c2ccccc2)cc1)P(=O)(O)O` [BPH-665] returned an IC50 of 13 µM.

On to `O=P(O)(O)C(O)(Cc1cccc(-c2ccc(F)cc2F)c1)P(=O)(O)O` [[2-(2',4'-Difluoro-biphenyl-3-yl)-1-hydroxy-1-phosphono-ethyl]-phosphonic acid], for which half-maximal inhibition (IC50) was put at 4.3 µM.

Molecule `O=P(O)(O)C(O)(Cc1cccc(-c2cccc(NS(=O)(=O)c3ccc(-c4ccccc4)cc3)c2)c1)P(=O)(O)O` [BPH-782] yielded an IC50 of 23 µM.

Consider `O=P(O)(O)C(Nc1ccc(-c2ccccc2)cc1)P(=O)(O)O` [(biphenyl-4-ylamino)methylenediphosphonic acid], for which it took 4.6 µM to reach half-maximal inhibition (IC50).

For the origin of these results see BindingDB's records for doi:10.1111/cbdd.12463 (University of California San Diego, 2015).
